Data set [1] deals with Mus musculus. As to the kind of experiment: In vivo inhibition of IKK2 in Balb/c mouse assessed as decrease in IL-1beta-induced NF-kappaB activation administered intranasally 0.5 to 1 hr prior to IL-1beta challenge measured after 1 to 24 hrs by luciferase reporter gene assay. In kind it is functional.
The nature of data set [2]: Drug uptake in po dosed Hartley guinea pig plasma. In kind it is ADME, organism-based, Cavia porcellus. The following applies: in vivo.
A short description of data set [3]: Drug uptake in Hartley guinea pig plasma at 0.01 to 0.3 mg/kg administered via intra-tracheal instillation measured after 1 hr. Format: ADME, organism-based, Cavia porcellus. As to conditions: in vivo, inhaled_or_intranasal; call rule not given here.
Data set [4] can be described thus: Drug uptake in Hartley guinea pig lung at 0.01 to 0.3 mg/kg administered via intra-tracheal instillation measured after 1 hr. In kind it is ADME, organism-based, Cavia porcellus. As to conditions: in vivo, inhaled_or_intranasal.
Data set [5] is described as follows: Prodrug conversion in Hartley guinea pig lung assessed as formation of 2-{[2-(2-Methylamino-pyrimidin-4-yl)-lH-indole-5-carbo- nyl]-amino}-3-(phenyl-pyridin-2-yl-amino)-propionic acid at 0.01 to 0.3 administered via intra-tracheal instillation measured after 1 hr. As to conditions: in vivo, inhaled_or_intranasal. In kind it is ADME, Cavia porcellus.
Data set [6] is described as follows: Drug uptake in Hartley guinea pig lung at 0.3 mg/kg administered via intra-tracheal instillation measured after 1 hr. As to conditions: in vivo, inhaled_or_intranasal. In kind it is ADME, organism-based, Cavia porcellus.

With `CNc1nccc(-c2cc3cc(C(=O)N[C@@H](CN(c4ccccc4)c4ccccn4)C(=O)O)ccc3[nH]2)n1`, the inhibition result in data set [1] was “Dose-dependent effect”. Further, the Drug uptake result in data set [2], in data set [3] and in data set [4] was “Active” throughout.

Take `CNc1nccc(-c2cc3cc(C(=O)N[C@@H](CN(c4ccccc4)c4ccccn4)C(=O)NOC)ccc3[nH]2)n1`: the inhibition entry in data set [1] is “Dose-dependent effect”. The Drug uptake entry in data set [2], in data set [3] and in data set [6] was “Active” in each case. The Drug metabolism result in data set [5] is listed as “Metabolite_Detected”.

These data come from ChEMBL document CHEMBL3879886, “Substantially pure 2-{[2-(2-Methylamino-Pyrimidin-4-YL)-1H-Indole-5-Carbonyl]-Amino}-3-Phenylpyridin-2-YL-Amino)-Propionic acid as an IkB kinase inhibitor” (2007).
